According to patent publication US20230082358A1, “3D PRINTED UV CROSSLINKING MASKS” (University of Maryland, College Park, priority 2021, published 2023):

Tests used:
Type in all cases: cell-based
[1] = test system: Human umbilical vein endothelial cells (HUVECs); assay: Actin immunostaining / adhesion, HUVECs; conditions: 72 h treatment
Protocol: (§1) HUVECs were treated in culture with treatment medium for 72 h. Treatment medium contained 0.1, 1, 10, 100, or 1000 μg/mL heparin in Medium 200 (with LSGS), while the control was medium only. The medium was replaced daily for the duration of this study. Cells were seeded in 96-well plate at a density of 30,000 cells/well in 200 μL of Medium 200 (with LSGS). Cells were left to adhere for 2 h before the medium was removed. Cells were fixed with 10% formalin and permeabilized. Wells were stained for 1 h with Alexa Fluor 488 Phalloidin (1:100, 100 μL, A12379, Invitrogen). Then the cells were stained with DAPI solution (3 μg/mL in PBS) for 10 min. Wells were imaged with an Eclipse Ti2 microscope under FITC excitation (465-495 nm) and emission (515-555 nm) and DAPI excitation (340-380 nm) and emission (435-485 nm). MATLAB was used to quantify the area of the green channel and count the cells in the blue channel for 3 images of each of the 3 wells (n=9) to calculate a ratio of F-actin area to number of cells.

[2] = test system: Human umbilical artery endothelial cells (HUAECs); assay: HUAECs heparin release study, vWF immunostaining; conditions: 48 h, p<0.05
Protocol: HUVECs were seeded in 96-well plates at a density of 3,500 cells/well in 235 μL of Medium 200 (with LSGS). Cells were left overnight to adhere before medium was replaced with 200 μL of treatment medium, which contained 0.1, 1, 10, 100, or 1000 μg/mL heparin in Medium 200 (with LSGS), while the control was medium only. The medium was replaced daily for the duration of this study. Cells were fixed with 10% formalin and permeabilized. Wells were treated overnight with anti-von Willebrand factor antibody (1:200, 100 μL, ab9378, Abcam, Cambridge, Mass.). The secondary antibody used was Alexa Fluor 633 (4 μg/mL, Invitrogen, Carlsbad, Calif.). Then the cells were stained with DAPI solution (3 μg/mL in PBS) for 10 min. […] MATLAB was used to quantify the intensity of the red channel and count the cells in the blue channel for 3 images of each of the 3 wells (n=9) to calculate a ratio of vWF intensity to number of cells.
(§2) Human umbilical artery endothelial cells (HUAECs) (Sigma-Aldrich) were seeded in MesoEndo Cell Growth Medium (Sigma-Aldrich) with the appropriate heparin treatment. […] Immunostaining and quantification was completed as described above at 48 h. Tissue factor pathway inhibitor (TFPI) was quantified with DuoSet ELISA kit (R&D Systems, Minneapolis, Minn.) according to the manufacturer's protocol. […]

[3] = test system: Human umbilical vein endothelial cells (HUVECs); assay: Cell metabolic activity assay (XTT), HUVECs; conditions: 100 and 1000 μg/mL heparin; 24, 72 and 120 h; p<0.05
Protocol: (§3) Human umbilical vein endothelial cells (HUVECs) (ThermoFisher Scientific, Waltham, Mass.) were seeded in 48-well plates at a density of 10,000 cells/well in 1 mL of Medium 200 (with manufacturer's required Low Serum Growth Supplement LSGS, ThermoFisher Scientific). Cells were left overnight to adhere before medium was replaced with 1 mL of treatment medium, which contained 0.1, 1, 10, 100, or 1000 μg/mL heparin in Medium 200 (with LSGS), while the control was medium only. The medium was replaced daily for the duration of this study. The electron coupling and XTT labeling reagents from the Cell Proliferation Kit II (XTT) (Roche, Mannheim, Germany) were mixed according to the manufacturer's protocol and added to the cell medium in a ratio of 1 to 2. Cell medium was removed from the wells and the XTT solution was added. It was incubated for 4 h and 100 μL was extracted in triplicate (n=9). The absorbance was measured with a Spark Multimode Microplate Reader (Tecan, Männedorf, Switzerland). Net absorbance was calculated (A475-A650) for each sample and XTT fold change was calculated by normalizing the net absorbance to that at 4 h.

[4] = test system: Human umbilical vein endothelial cells (HUVECs); assay: vWF immunostaining, HUVECs; conditions: higher heparin concentrations; up to 120 h
Protocol: HUVECs were seeded in 96-well plates at a density of 3,500 cells/well in 235 μL of Medium 200 (with LSGS). Cells were left overnight to adhere before medium was replaced with 200 μL of treatment medium, which contained 0.1, 1, 10, 100, or 1000 μg/mL heparin in Medium 200 (with LSGS), while the control was medium only. The medium was replaced daily for the duration of this study. Cells were fixed with 10% formalin and permeabilized. Wells were treated overnight with anti-von Willebrand factor antibody (1:200, 100 μL, ab9378, Abcam, Cambridge, Mass.). The secondary antibody used was Alexa Fluor 633 (4 μg/mL, Invitrogen, Carlsbad, Calif.). Then the cells were stained with DAPI solution (3 μg/mL in PBS) for 10 min. Wells were imaged with an Eclipse Ti2 microscope (Nikon, Tokyo, Japan) under Cy5 excitation (625-650 nm) and emission (670 nm) and DAPI excitation (340-380 nm) and emission (435-485 nm). MATLAB was used to quantify the intensity of the red channel and count the cells in the blue channel for 3 images of each of the 3 wells (n=9) to calculate a ratio of vWF intensity to number of cells.

[5] = test system: Human umbilical artery endothelial cells (HUAECs); assay: HUAECs heparin release study, XTT
Protocol: as §3, with “Cell medium was removed from the wells and the XTT solution was added. It was incubated for 4 h and 100 μL was extracted in triplicate (n=9).” left out
as §2

[6] = test system: Human umbilical vein endothelial cells (HUVECs); assay: Scratch assay, HUVECs; conditions: p<0.05
Protocol: HUVECs were treated in culture with treatment medium for 48 h. Treatment medium contained 0.1, 1, 10, 100, or 1000 μg/mL heparin in Medium 200 (with LSGS), while the control was medium only. The medium was replaced daily for the duration of this study. A 48-well plate was treated for 45 min with 200 μL of 0.1% wt/vol porcine gelatin (Sigma-Aldrich, St. Louis, Mo.) in DI water at 37° C. Cells were seeded in the well plate at a density of 100,000 cells/well in 800 μL of Medium 200 (with LSGS). Cells were left to adhere for 24 h before the medium was replaced. Scratches were made with a 200 μL pipette tip. Cells were imaged for 1 to 16 h after the scratches were made. ImageJ was used to quantify the gap distance in one image for each well (n=6). Gap closure (%) was reported as
where lo is the original gap length and lt is the gap length at a given time. The gap closure speed was defined as the slope of gap length curve with respect to time and was normalized to that of the 0 μg/mL group.

[7] = test system: Human umbilical artery endothelial cells (HUAECs); assay: HUAECs heparin release study, phalloidin (F-actin) staining; conditions: heparin profiles A, B, C; 48 h; p>0.05
Protocol: as §1, §2

[8] = test system: Human umbilical artery endothelial cells (HUAECs); assay: HUAECs heparin release study, TFPI ELISA; conditions: for release of TFPI: after 48 h, comparable to 0 μg/mL, more than profiles A and B
Protocol: Human umbilical artery endothelial cells (HUAECs) (Sigma-Aldrich) were seeded in MesoEndo Cell Growth Medium (Sigma-Aldrich) with the appropriate heparin treatment. For XTT and TFPI ELISA measurements, cells were seeded in a 24-well plate at a density of 150,000 cells/well in 1.8 mL of medium, while for immunostaining, cells were seeded in a 96-well plate at a density of 25,000 cells/well in 300 µL of medium. Treatment medium contained the heparin concentrations detailed in Table 1. One control group was medium only, while the other control group contained 30 μg/mL heparin, an estimate of heparin concentration during surgery. The medium was replaced at 8, 24, and 48 h. XTT was conducted as described above at 24 and 48 h. Immunostaining and quantification was completed as described above at 48 h. Tissue factor pathway inhibitor (TFPI) was quantified with DuoSet ELISA kit (R&D Systems, Minneapolis, Minn.) according to the manufacturer's protocol. The ladder and all samples were run in triplicate (n=9).

## heparin
[1]; 1000 μg/mL heparin, p<0.05
  number of cells adhered after 2 h, compared to 0 μg/mL: significantly lower
  ratio of F-actin area to number of cells, compared to 0 μg/mL: significantly lower
[1]; 0.1 and 1 μg/mL heparin
  number of cells adhered after 2 h: support
  ratio of F-actin area to number of cells: support
[2]
  vWF intensity, profile A versus profile C: higher
[3]
  XTT metabolic activity compared to 0 μg/mL heparin: significantly decreased
[4]
  vWF expression (ratio of vWF intensity to number of cells): upward trend
[5]; heparin profile A (246/122/118 μg/mL at 0-8/8-24/24-48 h)
  XTT metabolic activity of HUAECs at 48 h (normalized to 0 μg/mL): reduces
[5]; slower heparin profiles B and C
  XTT metabolic activity and vWF expression of HUAECs: unaffected
[6]; 1, 10, 100 and 1000 μg/mL heparin
  gap closure over 16 h: significantly decreases
[6]; 10, 100 and 1000 μg/mL heparin
  gap closure speed (normalized to 0 μg/mL): significantly decreases
[7]
  phalloidin (F-actin) area ratio: not impacted
[8]; 30 μg/mL heparin
  release of TFPI: highest release of TFPI
[8]; heparin profile A, after 24 and 48 h, p<0.05
  tissue factor pathway inhibitor (TFPI) produced: significantly less
[8]; heparin profile C
  release of TFPI: highest release of TFPI
